# Data from patent US9994522B2, “Amorphous form of apremilast” (MAPI PHARMA LTD., priority 2014, dated 2018).
# Legend:
# Format in all cases: physicochemical
# [1] = Physical stability on storage, appearance
# Description: (§1) About 40 mg of scaled up amorphous sample prepared by solvent-anti-solvent precipitation (addition of water to acetone) as described in Example 6 was weighed into glass vials. The vials were stored under different testing conditions (25° C. closed vial, 25° C./60% RH, 40° C. closed vial and 40° C./75% RH) 1 week, 2 weeks, 4 weeks, and 3 months. The original scaled up amorphous form was used as a control. XRPD and mDSC were checked at the end of each time point.
# [2] = Physical stability on storage, mDSC
# Description: Details of mDSC methods used in the tests are mentioned below: • Method I: Amorphous samples (about 1 mg) were run a modulated DSC using Tzero aluminum pans heated from 0° C. to 200° C. at speed of 2° C./min, with modulation temperature amplitude 1.0° C. and modulation 60 s. • Method II: The two-cycle heating mDSC was run using Tzero aluminum hermetic pans with pinhole with first cycle heated from 0° C. to 160° C. at speed of 2° C./min and the second cycle from 0° C. to 260° C. at speed of 2° C./min.
# as §1
# [3] = Physical stability on storage, XRPD pattern; conditions: for physical stability: 25° C. closed, 25° C./60% RH and 40° C. closed, three months (not 40° C./75% RH)
# Description: 3.1 XRPD Method • Details of XRPD method used in the tests are mentioned below: • X-ray Generator: Cu, Kα (λ=1.54179 Å). • Tube Voltage: 40 kV; Current: 40 mA. • Scanning Scope: 4 to 40 deg; • Sample rotation speed: 15 rpm. • Scanning rate: 10 deg/min
# as §1
# [4] = stored 25° C. Closed, 3rd month
# [5] = stored 25° C./60% RH, 3rd month
# [6] = stored 40° C. Closed, 3rd month
# [7] = stored 40° C./75% RH, 3rd month
compound,measurement,setting,value
"CCOc1cc([C@@H](CS(C)(=O)=O)N2C(=O)c3cccc(NC(C)=O)c3C2=O)ccc1OC [amorphous apremilast, N-[2-[(1S)-1-(3-ethoxy-4-methoxyphenyl)-2-(methylsulfonyl)ethyl]-2,3-dihydro-1,3-dioxo-1H-isoindol-4-yl]acetamide]",Appearance,[1]; [4],Light
same,Appearance,"[1]; stored 25° C. Closed, 4th week",Light
same,Appearance,"[1]; stored 25° C./60% RH, 1st week",Light
same,Appearance,"[1]; stored 25° C./60% RH, 2nd week",Light
same,Appearance,[1]; [5],Light
same,Appearance,"[1]; stored 25° C./60% RH, 4th week",Light
same,Appearance,"[1]; stored 40° C. Closed, 1st week",Light
same,Appearance,"[1]; stored 40° C. Closed, 2nd week",Light
same,Appearance,[1]; [6],Light
same,Appearance,"[1]; stored 40° C. Closed, 4th week",Light
same,Appearance,"[1]; stored 40° C./75% RH, 1st week",Light
same,Appearance,"[1]; stored 40° C./75% RH, 2nd week",Light
same,Appearance,"[1]; stored 40° C./75% RH, 3rd month, listed as Amorphous Apremilast",Darken
same,Appearance,"[1]; stored 40° C./75% RH, 3rd month, listed as apremilast",changed from light yellow to darkened yellow
same,Appearance,"[1]; stored 40° C./75% RH, 4th week",Light
same,Tg of mDSC (first glass transition temperature),[2]; Initial,77.7 °C
same,Tg of mDSC (second glass transition temperature),[2]; Initial,133.5 °C
same,change of first glass transition temperature (77.7° C.) on storage,"[2]; all testing conditions, up to end of the third month",did not change significantly
same,change of second glass transition temperature (133.6° C.) on storage,"[2]; different testing conditions, first week and second week",changed irregularly and even disappeared
same,heat of fusion peak related to crystalline conversion,"[2]; stored 25° C. (closed), 40° C. (closed) and 25° C./60% RH for three months",No heat of fusion peak related to crystalline conversion
same,Tg of mDSC (first glass transition temperature),"[2]; stored 25° C. Closed, 1st week",77.7 °C
same,Tg of mDSC (first glass transition temperature),"[2]; stored 25° C. Closed, 2nd week",78.5 °C
same,Tg of mDSC (second glass transition temperature),"[2]; stored 25° C. Closed, 2nd week",181.3 °C
same,Tg of mDSC (first glass transition temperature),[2]; [4],79.0 °C
same,Tg of mDSC (first glass transition temperature),"[2]; stored 25° C. Closed, 4th week",78.2 °C
same,Tg of mDSC (first glass transition temperature),"[2]; stored 25° C./60% RH, 1st week",78.4 °C
same,Tg of mDSC (second glass transition temperature),"[2]; stored 25° C./60% RH, 1st week",171.4 °C
same,Tg of mDSC (first glass transition temperature),"[2]; stored 25° C./60% RH, 2nd week",78.8 °C
same,Tg of mDSC (first glass transition temperature),[2]; [5],79.9 °C
same,Tg of mDSC (first glass transition temperature),"[2]; stored 25° C./60% RH, 4th week",78.9 °C
same,Tg of mDSC (first glass transition temperature),"[2]; stored 40° C. Closed, 1st week",79.1 °C
same,Tg of mDSC (first glass transition temperature),"[2]; stored 40° C. Closed, 2nd week",79.7 °C
same,Tg of mDSC (second glass transition temperature),"[2]; stored 40° C. Closed, 2nd week",170.4 °C
same,Tg of mDSC (first glass transition temperature),[2]; [6],83.9 °C
same,Tg of mDSC (first glass transition temperature),"[2]; stored 40° C. Closed, 4th week",81.1 °C
same,Tg of mDSC (first glass transition temperature),"[2]; stored 40° C./75% RH, 1st week",77.5 °C
same,Tg of mDSC (second glass transition temperature),"[2]; stored 40° C./75% RH, 1st week",105.9 °C
same,Tg of mDSC (first glass transition temperature),"[2]; stored 40° C./75% RH, 2nd week",77.8 °C
same,Tg of mDSC (second glass transition temperature),"[2]; stored 40° C./75% RH, 2nd week",174.5 °C
same,Tg of mDSC (first glass transition temperature),[2]; [7],77.7 °C
same,Tg of mDSC (first glass transition temperature),"[2]; stored 40° C./75% RH, 4th week",78.0 °C
same,sharp endothermic peak on mDSC (related to melting point of the crystalline form),"[2]; stored 40° C./75% RH, third month",153.4 °C
same,physical stability,[3],good physical stability
same,physical stability,[3]; listed as Apremilast,stable for three months
same,XRPD Pattern,[3]; Initial,Amorphous
same,XRPD Pattern,"[3]; stored 25° C. Closed, 1st week",Amorphous
same,XRPD Pattern,"[3]; stored 25° C. Closed, 2nd week",Amorphous
same,XRPD Pattern,[3]; [4],Amorphous
same,XRPD Pattern,"[3]; stored 25° C. Closed, 4th week",Amorphous
same,XRPD Pattern,"[3]; stored 25° C./60% RH, 1st week",Amorphous
same,XRPD Pattern,"[3]; stored 25° C./60% RH, 2nd week",Amorphous
same,XRPD Pattern,[3]; [5],Amorphous
same,XRPD Pattern,"[3]; stored 25° C./60% RH, 4th week",Amorphous
same,XRPD Pattern,"[3]; stored 40° C. Closed, 1st week",Amorphous
same,XRPD Pattern,"[3]; stored 40° C. Closed, 2nd week",Amorphous
same,XRPD Pattern,[3]; [6],Amorphous
same,XRPD Pattern,"[3]; stored 40° C. Closed, 4th week",Amorphous
same,XRPD Pattern,"[3]; stored 40° C./75% RH, 1st week",Amorphous
same,XRPD Pattern,"[3]; stored 40° C./75% RH, 2nd week",Amorphous
same,XRPD Pattern,[3]; [7],Amorphous
same,XRPD Pattern,"[3]; stored 40° C./75% RH, 4th week",Amorphous
same,small spike in the XRPD,"[3]; stored 40° C./75% RH, after three months",13.5 degrees two theta [2θ°]
